Like-named read-outs stand apart in the source and are kept apart here.
What was measured:
[1] = Acute toxicity, intravenous, LD50; details: mouse, in vivo, i.v., mice, animals which died within 14 days
Method: The intravenous toxicity was determined on laboratory mice of both sexes having an average body weight of 20 gm. From the number of animals which died within 14 days at various dosage levels, the median lethal dose (LD50) was calculated by the method of Litchfield and Wilcoxon, supra.

[2] = system: bronchospasms induced by acetylcholine; experiment: Bronchospasmolytic activity (method of Konzett et al.), acetylcholine-induced bronchospasm; format: in vivo; details: anesthetized guinea pigs; for ED50: Cavia porcellus, dose which produces a 50% reduction of the bronchospasm, acetylcholine 20 mgm/kg i.v.
Method: The compounds were tested on adult guinea pigs of both sexes by the standard pharmacological test method of Konzett et al., Naunyn-Schmiedeberg's Arch. Exp. Path. Pharmakol. 195, 71-74 (1940). The test animals were anesthetized with 1.5 gm/kg urethane i.p. The bronchospasms were induced by injection of 20 mgm/kg of acetylcholine i.v. The test compound was administered intravenously or intraduodenally. From the average values of maximum decrease in bronchoconstriction obtained at various dosage levels, an ED50 i.e. the dose which produces a 50% reduction of the bronchospasm, with confidence limits according to Fieller, Quart. J. Pharm. Phamacol. 17, 117-123 (1944), was calculated by linear regression analysis according to Linder, Statistische Methoden, 4th Ed., 148-162, published by Birkhauser, Basel, Switzerland (1964).

[3] = system: asthma attack induced by acetylcholine aerosol; experiment: Antiasthmatic activity (method of Kallos et al.), acetylcholine aerosol; format: in vivo, guinea pigs
Method: The standard test method of Kallos et al., Acta med. scand. 91, 292 (1937) was used. The test compound was orally administered to adult guinea pigs which were then exposed to an acetylcholine aerosol steam produced with an aerosol nozzle at 1.5 atmospheres gauge from a 0.4% solution of acetylcholine in an aqueous 0.9% sodium chloride solution. A more than three-fold prolongation of the time until onset of the asthma attack in comparision to untreated controls was evaluated as absolute protection. From the number of animals which were protected at various dosages, an ED50, i.e. the dose which gives absolute protection in 50% of the animals, was calculated by the method of Litchfield and Wilcoxon, J. Pahrmacol. Exper. Ther. 96, 99 (1949).

[4] = iv, read-out: ED50 after i.v. administration
[5] = i.d. (intraduodenal), read-out: ED50 after i.d. administration

| SMILES | LD50 at 336 h [1] [mg/kg] | ED50 [2, 4] [mg/kg] | ED50 [2, 5] [mg/kg] | t/2 after i.v. administration [2] [min] | ED50 ([3]; Cavia porcellus, po, dose which gives absolute protection in 50% of the animals (more than three-fold prolongation of time until onset of asthma attack), acetylcholine aerosol 0.4%) [mg/kg] | t/2 ([3]; p.o., guinea pigs) [min] | Max. effect after min. ([3]; p.o., guinea pigs, time of maximum effect) [min] |
| --- | --- | --- | --- | --- | --- | --- | --- |
| CCOC(=O)Nc1c(F)cc(C(O)CNC(C)(C)C)cc1Cl.Cl (stereo not drawn) [A, 1-(4'-ethoxycarbonylamino-3'-chloro-5'-fluoro-phenyl)-2-tert.-butylamino-ethanol hydrochloride] | 70.2 | 0.0307 | 0.0323 | 60 | – | – | – |
| CCOC(=O)Nc1c(F)cc(C(O)CNC(C)(C)C)cc1C#N.Cl (stereo not drawn) [B, 1-(4'-ethoxycarbonylamino-3'-cyano-5'-fluoro-phenyl)-2-tert.-butylamino-ethanol hydrochloride] | 97.5 | 0.0056 | 0.007 | 70 | 0.0143 | 150 | 15 to 30 |
| CCOC(=O)Nc1ccc(C(O)CNC(C)(C)C)cc1C#N.Cl (stereo not drawn) [C, 1-(4'-ethoxycarbonylamino-3'-cyano-phenyl)-2-tert. butylamino-ethanol hydrochloride] | 67.2 | 0.0235 | 0.0087 | > 50 | – | – | – |
| CCOC(=O)Nc1ccc(C(O)CNC(C)C)cc1C#N.Cl (stereo not drawn) [D, 1-(4'-ethoxycarbonylamino-3'-cyano-phenyl)-2-isopropylamino-ethanol hydrochloride] | 61.9 | 0.064 | – | > 50 | – | – | – |
